Literature values in patent US9211237B2, “Film foaming hydroalcoholic foam” (STIEFEL RESEARCH AUSTRALIA PTY LTD, priority 2003, dated 2015).

Conditions: UV absorber

Row | maximum absorption | SMILES
1 | ~360 nm | COc1ccc(C(=O)CC(=O)c2ccc(C(C)(C)C)cc2)cc1 [Parsol 1789, butyl methoxydibenzolymethane]
2 | 308 nm | CCCCC(CC)COC(=O)C=Cc1ccc(OC)cc1 (centres unmarked) [Parsol MCX, octinoxate]
